These results are taken from PubChem BioAssay AID493130 (Broad Institute, 2011).

Results filed as inconclusive are left out. Activity calls are given as the source filed them.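 The calls were made as follows: active = signal-lowering compounds whose fitted half-maximal concentration is at most ten times their highest tested dose; inconclusive = flat fit between -30 and -70%, or poor fit; inactive = flat within 30%, signal rising, or potency beyond limit.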

For the first test, the target named is POS-1 (Caenorhabditis elegans) binding to mex-3 RNA. As to the kind of experiment: inhibitors of POS-1/mex-3 RNA binding, dose response, counter-screen for MEX-5 RNA-binding inhibitor project, biochemical, fluorescence polarization, cherry-picked samples, set 2 (AID 493130).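 Also: POS-1 as maltose binding protein fusion made in E. coli with FITC RNA.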 The note with it: POS-1/mex-3 RNA fluorescence polarization, 1 h. (In general: Counterscreens check selectivity or assay interference.)
One may read the AC50 as the concentration giving half of the maximal activity seen. Consider `O=C(Nc1nc2c(s1)CN(Cc1ccccc1)CC2)c1cccc(S(=O)(=O)N2CCc3ccccc32)c1`, for which the AC50 is 7.79 µM. Same read-out and setting: the value for `Cn1c(=O)c2[nH]c(-c3ccccc3)c(O)c2n(C)c1=O` was 2.27 µM; that for `Cc1ccc(NC(=O)/C(C#N)=C(\N)C(Cl)(Cl)Cl)nc1` was 6.68 µM. On the same count and under the same terms, for `CCOc1cc(/C=C2\CCCc3c2nc2ccccc2c3C(=O)O)ccc1OC` the value was 0.948 µM. Take `Cc1cc(=O)oc(C)c1C(=O)Nc1ccc2ncccc2c1`: the concentration at half-maximal activity (AC50) is 8.33 µM. The same measure, in the same setting: for `O=C(O)C1Nc2c(Cl)cc(Cl)cc2C2C=CCC12` (stereo not given) the value was 5.13 µM. On the same count and under the same terms, for `O=C1C(Cl)=C(NC(=O)c2ccccc2)C(=O)C(Cl)=C1NC(=O)c1ccccc1` the value was 10.2 µM; for `Oc1ccc(/C=N/NC(=S)Nc2cccnc2)cc1O`, 9.5 µM; for `CC(=O)Nc1cccc(C2=CC(c3ccco3)n3ncnc3N2)c1` (stereo not given), 5.81 µM. Regarding `CC1CCN(Cc2c(O)ccc3c2O/C(=C\c2ccco2)C3=O)CC1`, the AC50 was 3.53 µM.

On to `CCCC1C2CN(C(C)C)CC=C2C(C#N)=C(N)C1(C#N)C#N` (stereo not given), for which the AC50 is 1.81 µM.

Staying with this test, now noted: POS-1/mex-3 RNA fluorescence polarization, 1 h; at 10 µM (top of the series).
For `COc1cc(OC)c2ccc(=O)oc2c1C(CC(=O)N1CCCC1)c1ccc(N(C)C)cc1` (stereo not given), the “activity change, negative = inhibition” value was “inactive”. On the same count and under the same terms, for `Cc1cc(-c2nnc(SCC(=O)Nc3nccs3)o2)no1` the value was “inactive”; for `Cn1c(C2=C(O)CN(c3ccccc3)C2=N)nc2ccccc21`, “inactive”. Regarding `COc1ccc(N=C2S/C(=C\c3ccc(N4CCOCC4)o3)C(=O)N2CCc2c[nH]c3ccccc23)cc1`, the “activity change, negative = inhibition” value was “inactive”. Consider `Oc1cccc(/C=N/NC(=S)Nc2cccnc2)c1O`, for which the “activity change, negative = inhibition” value is “inactive”.

Regarding `COc1cc(CCC(=O)Nc2ccc(Cl)c(C(F)(F)F)c2)cc(OC)c1OC`, the “activity change, negative = inhibition” value is “inactive”. The same measure, in the same setting: for `CCOC(=O)NNc1ccc2nonc2c1[N+](=O)[O-]` the value was “inactive”; for `O=C(NNC(=S)NC(=O)c1ccccc1[N+](=O)[O-])c1ccccc1[N+](=O)[O-]`, “inactive”. Take `Cc1ccc(C(=O)N/C(=C\c2ccc(-c3ccc(Cl)cc3)o2)C(=O)NCCCN(C)C)cc1`: the “activity change, negative = inhibition” value is “inactive”. Still for that read-out and setting: for `Oc1c(C=Nc2ccccc2)sc(=S)n1Cc1ccccc1` the value was “inactive”; for `CCOC(=O)Cc1csc(NC(=O)c2sc3nc4ccc(C)cc4cc3c2N)n1`, “inactive”; for `CCCCN(CCCC)CCNC(=O)CNC(=O)c1cccs1`, “inactive”. Turning to `Cc1ccc(N=Nc2c(O)n(CN3CCOCC3)c3ccccc23)cc1`, the “activity change, negative = inhibition” value was “inactive”.

For `O=C(O)c1ccc2cccnc2c1O`, the “activity change, negative = inhibition” value is “inactive”. Same read-out and setting: the value for `Cc1snc2sc(C(=O)c3ccc(Br)cc3)c(N)c12` was “inactive”. The same measure, in the same setting: for `Nc1nonc1C(=O)N/N=C/c1cc(Br)ccc1O` the value was “inactive”; for `COc1ccc(CC(=O)NNc2ncnc3c2cnn3C)cc1`, “inactive”; for `O=c1c2ccccc2c(C=Nc2ccc(O)cc2)c(O)n1-c1nccs1`, “inactive”. The same measure, in the same setting: for `O=Nc1[nH]c(=O)c(/C=C(\O)c2ccccc2)nc1NO` the value was “inactive”; for `CC(=O)c1c2c3c(c(Br)ccc3n(C)c1=O)C(=O)c1ccccc1-2`, “inactive”; for `COCCn1c(=N)c(S(=O)(=O)c2ccc(F)cc2)cc2c(=O)n3ccccc3nc21`, “inactive”. `CC1=NN(C(N)=S)C(=O)C1N=Nc1ccccc1C` (stereo not given): the “activity change, negative = inhibition” value was “inactive”. In the case of `O=C(O)c1cccc(NC(=S)N/N=C/c2c[nH]c3ccccc23)c1`, the “activity change, negative = inhibition” value was “inactive”. Turning to `Cc1ccc(-c2ccc(/C=N/N=C3/NC(=O)C(CC(=O)O)S3)o2)c([N+](=O)[O-])c1` (stereo not given), the “activity change, negative = inhibition” value is “inactive”.

With `CCOC(=O)c1ccc(NC(=O)C(=O)NCc2ccc(/C=C(/C#N)C(=O)NCCOC)o2)cc1`, the “activity change, negative = inhibition” value is “inactive”. Same read-out and setting: for `S=c1[nH]cnc2sc(Nc3ccccc3)nc12` the value was “inactive”. The same measure, in the same setting: for `Cc1ccc(N/N=C(\C#N)C(=O)c2ccsc2)cc1` the value was “inactive”; for `CCCCN(C(=O)C1=COCCO1)c1c(N)n(Cc2ccccc2)c(=O)[nH]c1=O`, “inactive”. Turning to `CC1=CC2=C(OC1N(C)C)c1cccc3cccc(c13)C2=O` (stereo not given), the “activity change, negative = inhibition” value was “inactive”. The same measure, in the same setting: for `CCOC(=O)C1CCN(c2nc3ccccc3nc2C(C#N)C(=O)OC(C)C)CC1` (stereo not given) the value was “inactive”. Regarding `CN1CCc2c(sc(NC(=O)C3CCCN3S(=O)(=O)c3ccc(Cl)s3)c2C(N)=O)C1` (stereo not given), the “activity change, negative = inhibition” value was “inactive”.

As for `COc1ccc(OC)c(/C=N/NC(=O)c2ccc(=O)[nH]n2)c1`, the “activity change, negative = inhibition” value was “inactive”. On the same count and under the same terms, the value for `CC(=O)O[C@@H]1[C@@H](O)[C@@H](O)[C@H](Oc2c(-c3ccc(O)cc3)oc3c(CC=C(C)C)c(O)cc(O)c3c2=O)O[C@H]1C` was “inactive”. Same read-out and setting: the value for `CCc1nnc(NS(=O)(=O)c2ccc(N=Cc3c(O)n(-c4ccc(Cl)cc4)c(=O)[nH]c3=O)cc2)s1` was “inactive”; that for `C#CCOCCOCCOCCNc1nc(N2CCN(C(=O)[C@H]([C@@H](C)O)n3cc(CCCCN)nn3)CC2)nc(N2CCN(C(=O)[C@H](C)n3cc(CCCN=C(N)N)nn3)CC2)n1` was “inactive”. For `Cc1ccc(S(=O)(=O)N/N=C/c2ccc(O)c(O)c2)cc1[N+](=O)[O-]`, the “activity change, negative = inhibition” value was “inactive”. Same read-out and setting: for `CCOC(=O)C1=C(C)N=c2s/c(=C\c3cccn3C)c(=O)n2C1c1cccc(OC)c1OC` (stereo not given) the value was “inactive”.

For the compound `CCNC(=S)NNC(=O)c1ccccn1`, the “activity change, negative = inhibition” value was “inactive”.

Consider `Cc1cc(/C=C2\C(=O)NC(=O)N(c3cccc(F)c3)C2=O)c(C)n1-c1cc(C(=O)O)cc(C(=O)O)c1`, for which the “activity change, negative = inhibition” value is “inactive”.

In the case of `Nc1ccccc1C(=O)NNC(=O)C(=O)/C=C(\O)c1ccccc1`, the “activity change, negative = inhibition” value is “inactive”.

`COC1=C(Nc2ccc(O)cc2)C(=O)c2ccccc2C1=O`: the “activity change, negative = inhibition” value was “inactive”. Same read-out and setting: the value for `COc1cc(C=C2C(=O)c3ccccc3C2=O)cc(OC)c1OC` was “inactive”; that for `N=C(N)N=Nc1c(O)[nH]c2ccc(Br)cc12` was “inactive”. Still for that read-out and setting: for `Cc1csc(NC(=O)c2ccc(-c3ccc(Cl)cc3Cl)o2)n1` the value was “inactive”. In the case of `COc1ccccc1/C=C1\SC(=S)N(CCC(=O)Nc2cc(C)on2)C1=O`, the “activity change, negative = inhibition” value is “inactive”. Same read-out and setting: the value for `CCOC(=O)c1sc2nc(C)[nH]c(=S)c2c1C` was “inactive”; that for `CCC(COC(C)=O)Nc1nc2c([nH]1)c(=O)n(C)c(=O)n2C` (stereo not given) was “inactive”; that for `O=C1SC(SCc2ccccc2)=N/C1=C\c1ccc(C(=O)O)cc1` was “inactive”. Same read-out and setting: the value for `COC(=O)/C(C#N)=C/c1c(-c2ccccc2)nc2n1CCS2` was “inactive”.
